# Test results: US20220011296A1, “DETERMINING TREATMENT RESPONSE IN SINGLE CELLS” (Dana-Farber Cancer Institute, Inc., priority 2018, published 2022)
# “Also recorded” adds a separate entry of the source.
# How the values were obtained:
# Type in all cases: cell-based, human
# [1] = tested on: Recurrent Glioblastoma cells; experiment: Sample viability (Live/Dead), recurrent glioblastoma; conditions: 1 μM Abema, 3 days; vehicle 67%
# Method: (§1) Primary Sample Handling. The six primary samples underwent the same protocol with regards to disassociation, recovery, and drugging; however, the exact timeline of each tissue varied slightly based on the amount of tissue and drug used (Table 1, below). After at least [culture time] in culture (with the exception of CNS lymphoma which was cultured for 24 hours), persistent red blood cells were removed with RBC lysis buffer (00-433-57, Thermo Fisher Scientific). The remaining cells were then dissociated with Accutase (A6964, Sigma-Aldrich) and further purified via demyelination (130-096-733, Miltenyi Biotec) with MS separation columns (130-042-201, Miltenyi Biotec), or debris removal (130-109-398, Miltenyi Biotec). The purified cells were plated in 6 or 24 well plates and allowed to recover in the well plate for [recovery time] before addition of the drug. After [drug duration] days, the samples were prepared for sSMR for drug response measurements by dissociation into a single-cell suspension using Accutase and gentle pipetting. Cells were resuspended at a concentration of 100,000 cells/mL in Neurocult NS-A (as prepared above) with the same concentration of drug or DMSO as their respective culture. Measurements for sample viability were determined (Table 2, below).
# Breast Met cells = experiment: Sample viability (Live/Dead), breast metastasis; conditions: 3 days, vehicle 35%
# Method: as §1
# Lung Met cells = experiment: Sample viability (Live/Dead), lung metastasis; conditions: 100 μM Carbo, 3 days; vehicle 80%
# Method: as §1
# [2] = tested on: metastatic non-small-cell lung cancer cells (BT1443); experiment: sSMR buoyant mass and MAR measurement, lung metastasis (BT1443); conditions: carboplatin 100 μM, 72 h
# Method: Patient-derived cells from six different types of brain tissues were assessed for drug sensitivity in the sSMR: non-tumor brain tissue from epilepsy surgery, glioblastoma, recurrent glioblastoma, breast metastasis, lung metastasis, and primary CNS lymphoma. Resected samples obtained with patient consent to research (Brigham and Women's Hospital, DF/HCC IRB-approved consent protocol 10-417) were enzymatically and physically dissociated using the Brain Tumor Dissociation Kit P (130-095-942, Miltenyi Biotec) and gentleMACS Dissociator (130-093-235, Miltenyi Biotec). […]
# Primary Sample Handling. […] Measurements for sample viability were determined (Table 2, below).
# Measurements were obtained from […] types of primary patient sample types, including: non-tumor brain tissue resected for a non-tumor condition (FIGS. 5A-5B, Table 6) (n=1); primary glioblastoma (FIGS. 5C-5D, Table 7) and recurrent glioblastoma (FIGS. 5E-5F, Table 8) (n=2); metastatic breast adenocarcinoma (FIGS. 5G-5H, Table 9) (n=1); metastatic non-small-cell lung cancer (FIGS. 5I-5J, Table 10) (n=1); and primary central nervous system (CNS) lymphoma (FIGS. 5K-5L, Table 11) (n=1). […] Overall, mass and MAR were measured for 1092 cells with an average of 84 cells measured per condition over 13 conditions tested (FIGS. 1B-1C). […]
# CNS Lymphoma cells = experiment: Sample viability (Live/Dead), CNS lymphoma; conditions: 10 nM Ibrutinib, 2 days; vehicle 74%
# Method: as §1
# [3] = tested on: glioblastoma multiforme (GBM) patient-derived cell lines (PDCLs); experiment: Single cell mass / MAR assay in patient-derived cell lines; conditions: TMZ compared with DMSO, heterogeneous cohort of PDCLs, FIG. 7A
# Method: A single cell protocol for monitoring the mass accumulation rate (MAR) in response to chemotherapy (FIGS. 6A-6F). After tumor resection, the tissue is dissociated into single cells (FIG. 6A). The single cells from the dissociated tumor is measured within a week of resection using the mass/MAR of the single cells in response to chemotherapeutic agents (FIG. 6C). In addition to acute sensitivity testing, dissociated tumor cells from patient samples can also be grown long-term into robust cell lines (e.g., patient-derived cell lines, PDCLs), where high throughput experiments can be performed and analyzed relative to a more complete genomic background of the tissue (FIG. 6D). Because this assay is high throughput, the MAR can be measured with more conditions relative to acute patient samples. These PDCLs can be implanted in vivo to allow MAR measurements to be taken ex vivo from treated animals (e.g., mice). Metabolic readouts (e.g., CellTiter-Glo, CTG) and spheroid area analysis (e.g., IncuCyte) were conducted in parallel to the novel single cell MAR assays described herein (FIG. 6E).
# Single cell MAR experiments were conducted in both PDCLs and acute patient models (FIGS. 7A-7D). […] The single cell MAR assay detected changes within 24 hours after treatment with a chemotherapeutic (TMZ) compared with DMSO (FIG. 7A).
# Glioblastoma cells = experiment: Sample viability (Live/Dead), glioblastoma; conditions: 250 μM TMZ, 8 days; vehicle 73%
# Method: as §1
# Normal brain cells = experiment: Sample viability (Live/Dead), normal brain; conditions: 250 μM TMZ, 3 days; vehicle 35%
# Method: as §1
compound,measurement,setting,value
CCN1CCN(Cc2ccc(Nc3ncc(F)c(-c4cc(F)c5nc(C)n(C(C)C)c5c4)n3)nc2)CC1 [Abemaciclib],Drug 1 Viability (Live/Dead),[1],59%
same,Drug 2 Viability (Live/Dead),Breast Met cells; 100 nM Abema,35%
N.N.O=C([O-])C1(C(=O)[O-])CCC1.[Pt+2] [Carboplatin],Drug 1 Viability (Live/Dead),Lung Met cells,74%
same,Mass-normalized MAR vs vehicle (in words),[2],significantly reduced; also recorded: Statistically significant reductions
C=CC(=O)N1CCC[C@@H](n2nc(-c3ccc(Oc4ccccc4)cc3)c3c(N)ncnc32)C1 [Ibrutinib],Drug 1 Viability (Live/Dead),CNS Lymphoma cells,65%
"CO[C@H]1C[C@@H]2CC[C@@H](C)[C@@](O)(O2)C(=O)C(=O)N2CCCC[C@H]2C(=O)O[C@H]([C@H](C)C[C@@H]2CC[C@@H](OCCO)[C@H](OC)C2)CC(=O)[C@H](C)/C=C(\C)[C@@H](O)[C@@H](OC)C(=O)[C@H](C)C[C@H](C)/C=C/C=C/C=C/1C [RAD001, everolimus]",Drug 1 Viability (Live/Dead),Breast Met cells; 1 nM RAD,32%
"Cn1nnc2c(C(N)=O)ncn2c1=O [TMZ, Temozolomide]",time after treatment at which single cell MAR changes were detected,[3],≤ 24 h
same,Drug 1 Viability (Live/Dead),Glioblastoma cells,69%
same,Drug 1 Viability (Live/Dead),Normal brain cells,30%
